This assay has as its target HCV NS3 helicase (NS3h) (UniProt A3EZJ3). The assay can be described thus: NS3h DNA-binding inhibition IC50 – biochemical, fluorescence polarization, ChemBridge library, dose response (AID 743264). The following applies: NS3h binding Cy5-dT15 DNA. For orientation: Polarisation of emitted light reports the rotation of a fluorescent probe.

SMILES strings stand for the structures. Activity calls are given as the source filed them.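 The calls were made as follows: active = mean IC50 for blocking HCV helicase binding to DNA at 50 µM or lower; inactive = mean IC50 above 50 µM.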

Sequence of HCV NS3 helicase (NS3h) (A3EZJ3 1-631): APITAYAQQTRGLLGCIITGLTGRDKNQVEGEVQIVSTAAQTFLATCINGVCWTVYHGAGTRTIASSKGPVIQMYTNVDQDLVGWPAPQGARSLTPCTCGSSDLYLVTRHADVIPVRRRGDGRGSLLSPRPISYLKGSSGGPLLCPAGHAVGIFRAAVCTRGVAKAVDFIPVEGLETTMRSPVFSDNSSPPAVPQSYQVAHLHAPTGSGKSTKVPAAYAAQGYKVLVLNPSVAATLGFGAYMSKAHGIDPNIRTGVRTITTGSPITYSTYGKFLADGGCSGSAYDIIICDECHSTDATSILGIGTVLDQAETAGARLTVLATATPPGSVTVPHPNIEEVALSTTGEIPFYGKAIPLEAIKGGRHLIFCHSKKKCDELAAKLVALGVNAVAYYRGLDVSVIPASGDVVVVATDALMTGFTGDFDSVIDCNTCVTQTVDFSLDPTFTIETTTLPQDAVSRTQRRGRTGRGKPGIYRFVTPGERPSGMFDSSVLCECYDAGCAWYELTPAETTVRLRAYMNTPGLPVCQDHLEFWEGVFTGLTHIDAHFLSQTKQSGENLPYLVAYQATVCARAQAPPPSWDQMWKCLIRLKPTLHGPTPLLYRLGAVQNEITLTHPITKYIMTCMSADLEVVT

As for `Cc1ccc(N2C(=O)C=CC2=O)c(Br)c1`, the IC50 result is “inactive”. The entry for `O=C1C=CC(=O)N1c1cccc([N+](=O)[O-])c1` is “inactive”.

(Values after PubChem BioAssay AID743264.)
